Measurements published in patent US9161562B2, “Natural sweetener” (Horizon Science Pty Ltd, priority 2004, dated 2015).
Read-outs that look alike come from different tables or passages of the source.

Tests used:
[1] = scale 1 to 100, glucose rated 100, cited from earlier work
healthy people = test: Glycemic Index (GI) test, two-hour blood glucose response vs glucose reference; format: in vivo, humans; details: when added to sugar; conclusion of Example 11
Experimental: This study was conducted by the Human Nutrition Unit at the University of Sydney using internationally recognised GI methodology, which has been validated by results obtained from small experimental studies and large multi-centre research trials. The experimental procedures used in this study were in accordance with international standards for conducting ethical research with humans and were approved by the Human Research Ethics Committee of Sydney University.
Using standard methodology to determine a food's GI value, a portion of the food containing between 10 and 50 grams of available carbohydrate is fed to 10 healthy people the morning after they have fasted for 10-12 hours overnight. A fasting blood sample is first obtained from each person and then the food is consumed, after which additional blood samples are obtained at regular intervals during the next two hours. In this way, it's possible to measure the total increase in blood sugar produced by that food over a two-hour period. […]
For each subject, the concentration of glucose in each of the eight whole blood samples collected from them during each test session was analysed in duplicate using a HemoCue® B-glucose photometric analyser employing a glucose dehydrogenase/mutarotase enzymatic assay (HemoCue AB, Ängelholm, Sweden). […] Therefore, each blood sample was analysed immediately after it was collected. […]

O=C(CO)[C@@H](O)[C@H](O)[C@H](O)CO [fructose]
glycemic index (GI) [1]: 23

O=C[C@H](O)[C@@H](O)[C@@H](O)[C@H](O)CO [galactose]
effect on the GI of sugar (healthy people): reduces the GI to a low level

OC[C@H]1O[C@@](CO)(O[C@H]2O[C@H](CO)[C@@H](O)[C@H](O)[C@H]2O)[C@@H](O)[C@@H]1O [sucrose]
glycemic index (GI) [1]: about 65
glycemic index (GI) ([1]; listed as table sugar): 65
